Data as given in patent US11040028B2, “Penicinotam derivative, preparation method and use thereof” (OCEAN UNIVERSITY OF CHINA, priority 2017, dated 2021).

Legend:
Type in all cases: cell-based
[1] = system: human hepatic stellate cells LX-2; assay: Anti-fibrosis activity test: inhibition of proliferation of human hepatic stellate cells LX-2 (CCK-8); conditions: Homo sapiens, 48 h
Experimental: (§1) BHK-21 cells in exponential growth phase were selected. After the fusion growth reached 85-95%, normal passage method was utilized to digest and collect the cells, followed by cell counting and adjusting the cell density to 2×10^4 cells/mL. The cells were seeded into 96-well plates, 100 μL/well, and were incubated under the condition of 5% CO2 at 37° C.
(§2) The supernatant was removed after the cells had adhered to the wall for 24 hours. The culture solution containing the prepared compounds at different concentrations were added to the wells, 100 μL/well, each concentration in triplicate. The cells were subcultured for 48 hours after administration. Commercially available pirfenidone was employed as the positive control.
(§3) 10 μL of CCK-8 solution ( 1/10 of the volume of the culture solution) was added to each well 48 hours after the administration, and incubated for 2 hours. The absorbance (A) of each well was determined by a microplate reader at 450 nm wavelength. The inhibition rate against cell proliferation for each compound was calculated based on A, wherein inhibition rate against cell proliferation (inhibition ratio, IR)=(1−value of experimental group (Ai)/value of blank control group (Ao))×100% and the IC50 value of each compound was calculated by the data processing software.
(§4) Using the same protocol for the cell experiments, the inhibitory activity of the test compounds against the proliferation of human lung fibroblasts HFL1, human hepatic stellate cells LX-2, human fibrosarcoma cells HT-1080, human dermal fibroblasts CCC-ESF-1, human embryonic lung fibroblast IMR-90, cardiac fibroblast RAT-iCell-C002 was assayed.

[2] = system: human dermal fibroblasts CCC-ESF-1; assay: Anti-fibrosis activity test: inhibition of proliferation of human dermal fibroblasts CCC-ESF-1 (CCK-8); conditions: Fibroblast
Experimental: as §1, §2, §3, §4

[3] = system: human fibrosarcoma cells HT-1080; assay: Anti-fibrosis activity test: inhibition of proliferation of human fibrosarcoma cells HT-1080 (CCK-8); conditions: Homo sapiens, HT-1080, 48 h
Experimental: as §1, §2, §3, §4

[4] = system: human embryonic lung fibroblast IMR-90; assay: Anti-fibrosis activity test: inhibition of proliferation of human embryonic lung fibroblast IMR-90 (CCK-8)
Experimental: as §1, §2, §3, §4

[5] = system: cardiac fibroblast RAT-iCell-C002; assay: Anti-fibrosis activity test: inhibition of proliferation of cardiac fibroblast RAT-iCell-C002 (CCK-8); conditions: Cardiac fibroblast, 48 h
Experimental: as §1, §2, §3, §4

[6] = system: human lung fibroblasts HFL1; assay: Anti-fibrosis activity test: inhibition of proliferation of human lung fibroblasts HFL1 (CCK-8); conditions: Homo sapiens, HFL1, 48 h
Experimental: as §1, §2, §3, §4

BHK-21 cells = assay: Anti-fibrosis activity test: inhibition of BHK-21 cell proliferation (CCK-8); conditions: Mesocricetus auratus, BHK-21, 48 h
Experimental: as §1, §2, §3

[7] = Homo sapiens, CCC-ESF-1 cells, 48 h, CCK-8
[8] = Homo sapiens, IMR-90 cells, 48 h, CCK-8
[9] = human hepatic stellate cells LX-2, CCK-8, 48 hours
[10] = human dermal fibroblasts CCC-ESF-1, CCK-8, 48 hours
[11] = human fibrosarcoma cells HT-1080, CCK-8, 48 hours
[12] = human embryonic lung fibroblast IMR-90, CCK-8, 48 hours
[13] = cardiac fibroblast RAT-iCell-C002, CCK-8, 48 hours
[14] = human lung fibroblasts HFL1, CCK-8, 48 hours
[15] = CCK-8, 48 hours after administration

Measured: IC50

Cc1ccc2n1C(=O)c1c-2[nH]c2ccccc2c1=O [Compound 800a, 1-Methyl-9H-pyrrolizino[1,2-b]quinoline-9,10(4H)-dione]
0.05 to 5 mM: [1]; LX-2, 48 h, LX-2 cells, CCK-8 | [2]; [7] | [3]; HT-1080 cells, 48 h, CCK-8 | [4]; [8] | [5]; RAT-iCell-C002 cells, CCK-8 | [6]; HFL1 cells, 48 h, CCK-8 | BHK-21 cells; 48 h, CCK-8

O=C1c2c(n(Cc3ccc(F)cc3)c3cc(N4CCNCC4)c(F)cc3c2=O)-c2cccn21 [Compound 634a, 7-Fluoro-4-(4-fluorobenzyl)-6-(piperazin-1-yl)-9H-pyrrolizino[1,2-b]quinoline-9,10(4H)-dione]
0.05 to 5 mM: [1]; [9] | [2]; [10] | [3]; [11] | [4]; [12] | [5]; [13] | [6]; [14] | BHK-21 cells; [15]

O=C1c2c(nc3cc(N4CCNCC4)c(F)cc3c2OCc2ccc(Br)cc2)-c2cccn21 [Compound 633b, 9-((4-bromobenzyl)oxy)-7-fluoro-6-(piperazin-1-yl)-10H-pyrrolizino[1,2-b]quinolin-10-one]
0.05 to 5 mM: [1]; [9] | [2]; [10] | [3]; [11] | [4]; [12] | [5]; [13] | [6]; [14] | BHK-21 cells; [15]

O=C1c2c(nc3cc(Cl)ccc3c2OCc2ccccc2Cl)-c2cccn21 [Compound 510b, 6-chloro-9-((2-chlorobenzyl)oxy)-10H-pyrrolizino[1,2-b]quinolin-10-one]
0.05 to 5 mM: [1]; [9] | [2]; [10] | [3]; [11] | [4]; [12] | [5]; [13] | [6]; [14] | BHK-21 cells; [15]

O=C1c2c(n(Cc3ccc(F)cc3)c3cc(N4CCNCC4)cc(F)c3c2=O)-c2cccn21 [Compound 646a, 8-Fluoro-4-(4-fluorobenzyl)-6-(piperazin-1-yl)-9H-pyrrolizino[1,2-b]quinoline-9,10(4H)-dione]
0.05 to 5 mM: [1]; [9] | [2]; [10] | [3]; [11] | [4]; [12] | [5]; [13] | [6]; [14] | BHK-21 cells; [15]

N#Cc1ccccc1-c1ccc(COc2c3c(nc4cc(N5CCNCC5)c(C#N)cc24)-c2cccn2C3=O)cc1 [Compound 644b, 9-((2′-cyano-[1,1′-biphenyl]-4-yl)methoxy)-10-oxo-6-(piperazin-1-yl)-10H-pyrrolizino[1,2-b]quinoline-7-carbonitrile]
0.05 to 5 mM: [1]; [9] | [2]; [10] | [3]; [11] | [4]; [12] | [5]; [13] | [6]; [14] | BHK-21 cells; [15]

N#Cc1ccc(Cn2c3c(c(=O)c4cc(F)c(N5CCNCC5)cc42)C(=O)n2cccc2-3)cc1 [Compound 635a, 4-((7-Fluoro-9,10-dioxo-6-(piperazin-1-yl)-9H-pyrrolizino[1,2-b]quinolin-4(10H)-yl)methyl)benzonitrile]
0.05 to 5 mM: [1]; [9] | [2]; [10] | [3]; [11] | [4]; [12] | [5]; [13] | [6]; [14] | BHK-21 cells; [15]

CC(C)CCOc1c2c(nc3ccc(F)cc13)-c1cccn1C2=O [Compound 105b, 7-fluoro-9-(isopentyloxy)-10H-pyrrolizino[1,2-b]quinolin-10-one]
0.05 to 5 mM: [1]; [9] | [2]; [10] | [3]; [11] | [4]; [12] | [5]; [13] | [6]; [14] | BHK-21 cells; [15]

Cc1ccc2n1C(=O)c1c-2nc2ccccc2c1O [Compound 800b, 9-hydroxy-1-methyl-10H-pyrrolizino[1,2-b]quinolin-10-one]
0.05 to 5 mM: [1]; LX-2, 48 h, LX-2 cells, CCK-8 | [2]; [7] | [3]; HT-1080 cells, 48 h, CCK-8 | [4]; [8] | [5]; RAT-iCell-C002 cells, CCK-8 | [6]; HFL1 cells, 48 h, CCK-8 | BHK-21 cells; 48 h, CCK-8
